Laboratory results from patent US10344065B2, “Method for treating Alzheimer's disease and method for downregulating protein aggregation in brain” (National Cheng Kung University, priority 2017, dated 2019).

Key:
[1] = test system: WWOX; assay: WWOX phosphorylation in melanoma-bearing nude mice; format: in vivo, mouse; conditions: B16F10-bearing nude mice, n=3
Protocol: FIG. 4 includes photos showing that Zfra suppresses melanoma B16F10-mediated neurodegeneration in the hippocampus. Nude mice were preinjected with 100 μL, of sterile Milli-Q water or Zfra4-10 (1 mM in sterile water) in 3 consecutive weeks. After treatment for a week, these mice were inoculated with melanoma B16F10 cells on both flanks (2×10^5 cells in 100-μL, PBS). Mice were sacrificed when the tumor sizes grew up to 2000-3000 mm^3 in about a month. (A) Zfra blocked neurodegeneration in the hippocampus (top panel) and prevented the formation of TPC6AΔ plaques in the cortex (bottom panel), which negatively correlates with pS14-WWOX expression. Note the presence of condensed apoptotic nuclei in the hippocampal neurons in the control mice, (B) Metastasis of B16F10 cells to the lung was blocked in Zfra-treated mice. Compared to controls, Zfra suppressed p-S14WWOX expression in the lung by ˜72% suppression (three sections). […] (C and D) The non-spatial learning and memory were determined by novel object recognition task for both 3×Tg and Wwox+/− mice. […] Also, see data in FIG. 1.
Six- to eight-week-old male nude (BALB/cAnN.Cg-Foxn1^nu/CrlNarl) mice (National Laboratory Animal Center, Taiwan) were used. Mice were intravenously injected into tail veins with 100 μL of Zfra1-31 or Zfra4-10 (2 mM), or sterile water. After injection for 1-8 weeks, mouse melanoma B16F10 or human glioma 13-06-MG cells (2-2.5×10^6 cells/100-μL saline) were then inoculated in subcutaneous sites at both flanks. Tumor volumes were measured daily and calculated using the equation, D×(d)^2/2, where D and d are the major and minor diameters, respectively. At indicated time point, mouse organs, including brain, lung, spleen, and liver, were harvested and fixed with 4% paraformaldehyde. IHC was carried out using indicated specific antibodies to determine protein expression in tissues and organs. Where indicated, TMR-Zfra was used to stain spleen, brain, and lung tissues. Z-cell distribution in organs was determined under fluorescence microscopy.

[2] = test system: TPC6AΔ peptides; assay: Aggregation of serine-containing TPC6AΔ peptides in PBS; format: biochemical; conditions: 24 hours, room temperature
Protocol: (§1) FIG. 5 includes photos and diagrams showing that Zfra suppresses polymerization or aggregation of serine-containing TPC6AΔ and other peptides in PBS. Zfra4-10 was incubated with an indicated serine-containing peptide in PBS at room temperature for 24 hours (final 200 μM each peptide). The mixtures were subjected to nonreducing sodium dodecyl sulfate polyacrylamide gel electrophoresis (SDS-PAGE). (A) Full-length Zfra or red-fluorescent TMR-Zfra blocked aggregation of Aβ42 (lanes 3, 5, and 7). […] The membrane was stained with antibody against Aβ. (B) Zfra4-10 and one of the TPC6AΔ peptides were resuspended in Milli-Q water or PBS and incubated for 24 hours at room temperature. Zfra4-10 suppressed the polymerization of serine-containing peptides. Reduction in intensity=[1−(Z.P)/(Z+P)]×100%, where Z=Zfra4-10, P=an indicated peptide, and Z.P=peptide mixture. […] Zfra4-10 suppressed polymerization of these peptides in PBS.
Zfra and serine-containing peptides were synthesized by Genemed Synthesis (San Antonio, Tex., USA), (1) Zfra1-31, […] (SEQ ID NO: 2); (2) Zfra4-10, RRSSSCK (SEQ ID NO: 1); (3) WWOX7-21, AGLDDTDSEDELPPG (SEQ ID NO: 3); (4) pS14-WWOX7-21, AGLDDTDpSEDELPPG (SEQ ID NO: 4); (5). […]

[3] = target: T1, WWOX7-21, WWOX286-299, and ANKRD40266-281 peptides (Homo sapiens, UniProt Q9NZC7); assay: Polymerization of serine-containing WWOX and ANKRD40 peptides in PBS; format: biochemical
T1 construct: purchased Genemed Synthesis
Protocol: as §1
(§2) Zfra and serine-containing peptides were synthesized by Genemed Synthesis (San Antonio, Tex., USA), (1) Zfra1-31, […] (SEQ ID NO: 2); (2) Zfra4-10, RRSSSCK (SEQ ID NO: 1); (3) WWOX7-21, AGLDDTDSEDELPPG (SEQ ID NO: 3); (4) pS14-WWOX7-21, AGLDDTDpSEDELPPG (SEQ ID NO: 4); (5). WWOX286-299, DYWAMLAYNRSKLC (SEQ ID NO: 5); (6) pY287-WWOX286-299, DpYWAMLAYNRSKLC (SEQ ID NO: 6); (7) TPC6A24-38, DPGPGGQKMSLSVLE (SEQ ID NO: 7); (8) pS35-TPC6A24-38, DPGPGGQKMSLpSVLE (SEQ ID NO: 8); (9) TPC6A84-100, KDLWVAVFQKQMDSLR (SEQ ID NO: 9); (10) ANKRD40266-281, RIQNPSLRENDFIEIE (SEQ ID NO: 10); (11) pS271-ANKRD40266-281, RIQNPpSLRENDFIEIE (SEQ ID NO: 11); (12) tetramethylrhodamine-labeled Zfra (TMR-Zfra), the full-length Zfra1-31 was labeled with a red-fluorescent […] fluorescent probe tetramethylrhodamine. The peptide stocks were made as 10 mM in degassed sterile Milli-Q water. Each tube was flushed with nitrogen and stored in −80° C. freezer. For tail vein injections, peptides were freshly prepared in degassed Milli-Q water at 1-4 mM in 100-μL Milli-Q. GenBank accession for ANKRD40 is EU164539. Aβ peptides were from AnaSpec, (1) Aβ42: […] (SEQ ID NO: 12); (2) Aβ40: […] […]

[4] = test system: WWOX7-21, WWOX286-299, and ANKRD40266-281 peptides; assay: as above; format: biochemical
Protocol: as §1, §2

aggregation of pY287-WWOX286-299 [3]: did not effectively block
Substance: RRSSSCK [Zfra4-10, truncated zinc finger-like peptide, amino acids 4-10 of Zfra]
suppression of Ser14 phosphorylation of WWOX (pS14-WWOX) ([1]; brain (hippocampus)): 87±5%
suppression of Tyr33 phosphorylation in WWOX ([1]; brain): 2±6%
suppression of phosphorylation in Tyr33 in WWOX in the lung ([1]; lung): 5±3%
aggregation of TPC6AΔ peptides (TPC6AΔ24-38, pS35-TPC6AΔ24-38, TPC6AΔ84-100) [2]: effectively blocked
polymerization of phosphorylated WWOX7-21 and ANKRD40266-281 [4]: had apparent effects
polymerization or aggregation of non-phosphorylated WWOX7-21, WWOX286-299, ANKRD40266-281 [4]: effectively blocked
